Source: publication PMC8234864, “Early Effects of the Soluble Amyloid β25-35 Peptide in Rat Cortical Neurons: Modulation of Signal Transduction Mediated by Adenosine and Group I Metabotropic Glutamate Receptors” (International Journal of Molecular Sciences, 2021)
Where no end group is shown, it is not given here.

Legend:
[1] = tested on: Total mGluR; assay: L-[3H]glutamate radioligand binding in intact cortical neurons; design: species or system rat; conditions: for Total mGluR Bmax: L-[3H]Glutamate saturation binding
Method: Metabotropic glutamate receptors were determined using the radioligand L-[^3H]glutamate, as described previously. Radioligand binding assays using intact cells were performed in 24-well plates. Briefly, cells were washed with serum-free DMEM buffered with 20 mM HEPES pH 7.4 and incubated for 60 min at 37 °C in a final volume of 250 µL, in the presence of 100 μM AMPA, 100 μM NMDA, and 100 μM kainate, to block glutamate binding to these receptor types; 10 μM of the glutamate uptake inhibitor D,L-threo-β-hydroxyaspartic acid; and increasing concentrations of L-[^3H] glutamate (200 nM to 1.2 µM). Non-labeled L-Glutamate in a concentration of 10^5 times higher than the radioligand was used to determine non-specific binding. After incubation, cells were washed with 500 µL of ice-cold buffer and disrupted with 0.2% SDS. Well contents were then transferred to vials and a scintillation liquid mixture was added to measure radioactivity. At least two wells from each plate were reserved for protein concentration measurement.

[2] = tested on: Caspase 3; assay: Caspase 3 activity assay; format: cell-based, rat; conditions: 25 µM Aβ25-35 exposure
Method: A commercial kit (Molecular Probes, Barcelona, Spain) was used to determine Caspase 3 activity following the manufacturer’s instructions. Briefly, cortical neurons growth in 24-well plates were exposed to Aβ25-35 or maintained under control conditions. Cells were lysed and lysates centrifuged to clear cell debris. Then, 50 µL of test buffer containing Z-DEVD-Rhodamine 110, DTT, EDTA, PIPES, and CHAPS was added to the supernatants obtained in the proportions indicated by the manufacturer. After 30 min of incubation at room temperature, the […] of each sample was measured on a plate reader (excitation/emission 496/520 nm).

[3] = molecular target: T1, A2AR (Rattus norvegicus, UniProt P30543); assay: [3H]ZM241385 radioligand binding in intact cortical neurons; conditions: for A2AR Bmax: [3H]ZM241385 saturation binding
T1 construct: endogenous in cells; host or cells: rat primary cortical neurons (intact)
T1 sequence (P30543 whole entry): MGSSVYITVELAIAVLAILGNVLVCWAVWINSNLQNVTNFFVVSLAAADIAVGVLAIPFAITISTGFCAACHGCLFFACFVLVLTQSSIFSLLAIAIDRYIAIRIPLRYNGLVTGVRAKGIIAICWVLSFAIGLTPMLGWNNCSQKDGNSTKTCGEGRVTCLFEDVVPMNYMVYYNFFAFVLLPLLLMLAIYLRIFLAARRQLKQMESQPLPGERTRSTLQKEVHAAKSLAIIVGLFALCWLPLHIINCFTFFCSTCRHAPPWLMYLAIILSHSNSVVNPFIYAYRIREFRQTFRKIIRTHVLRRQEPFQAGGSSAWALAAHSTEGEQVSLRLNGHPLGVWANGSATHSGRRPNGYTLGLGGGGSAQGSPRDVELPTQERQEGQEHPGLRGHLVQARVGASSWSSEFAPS
Method: Concerning adenosine receptor assessment by radioligand binding, [^3H]DPCPX and [^3H]ZM241385 were employed as selective A1R and A2AR radioligands, as described previously, to determine A1R and A2AR density, respectively. Briefly, primary cortical neurons growth in 24-well plates were washed with serum-free DMEM and pre-incubated with 2 U/mL ADA at 37 °C for 30 min to remove endogenous adenosine. After incubation, the radioligands [^3H]DPCPX (1–20 nM) or [^3H] ZM241385 (1–20 nM) were added in the absence or the presence of CPA in a concentration 10^4 times higher than the radioligand, to obtain non-specific binding to A1R, or 5 mM theophylline, to obtain non-specific binding to A2AR. A specific adenosine uptake inhibitor (1 µM dipyridamole) was added to the reaction mixture to block adenosine receptor ligands’ binding to adenosine transporters. After incubation at 25 °C for 2 h in a final volume of 250 µL, cells were washed with 500 µL of ice-cold buffer and disrupted with 0.2% SDS. Well contents were then transferred to vials and a scintillation liquid mixture was added to measure radioactivity. Two wells from each plate were reserved for protein concentration measurement.

[4] = tested on: PLCβ1 gene expression; assay: PLCβ1 gene expression by real-time RT-PCR; format: cell-based, rat; conditions: 25 µM
Method: Total RNA was extracted using an ABI 6100 Nucleic Acid PrepStation according to the manufacturer’s protocol (Applied Biosystems Inc., Foster City, CA, USA). Total RNA from cells was isolated and stored at −80 °C. The quality of isolated RNA was estimated by the ratio A260/A280 and was in the range of 1.9–2.1. RNA integrity was evaluated by agarose gel electrophoresis according to MIQE guidelines using the “bleach gel” method. RNA concentrations were determined from the A260. One microgram of total RNA was reverse transcribed using Applied Biosystems High-Capacity cDNA Archive Kit.
To assess relative gene expression in neurons, quantitative real-time RT-PCR analysis was performed with an Applied Biosystems Prism 7500 Fast Sequence Detection System using TaqMan® universal PCR master mix according to the manufacturer’s specifications. […] Levels of RNA expression were determined using the 7500 Fast System SDS software version 1.3.1 (Applied Biosystems) according to the 2^−ΔΔCt method. […] The results from three independent repeat assays, performed in different plates each using different cDNA’s from the cultures analyzed, were averaged to produce a single mean quantity value for each mRNA.

[5] = neurons exposed to 25 µM for 24 h
[6] = neurons exposed to 25 µM for 48 h

## GSNKGAIIGLM [Aβ25-35]
[1]; 25 µM, 24 or 48 h
  mGluR affinity (1/KD), % of the control value: ~50%
[1]; 25 µM, 24 h
  Total mGluR density (Bmax) increase over control value: 61%
[1]; 25 µM, 48 h
  Total mGluR density (Bmax) increase over control value: 99%
[1]; [5]
  Kd: 1610 ± 423 nM
  Total mGluR Bmax: 952 ± 9 pmol/mg prot
[1]; [6]
  Kd: 1520 ± 163 nM
  Total mGluR Bmax: 1178 ± 93 pmol/mg prot
[2]
  caspase 3 activity: increase
[3]; 25 µM, 24 or 48 h
  A2AR affinity (1/KD), change vs control: no significant variation
[3]; 25 µM, 24 h
  Total A2AR density (Bmax), change vs control: not altered
[3]; 25 µM, 48 h
  Total A2AR density (Bmax) increase over control value: 80%
[3]; [5]
  Kd: 10.3 ± 1.22 nM
  A2AR Bmax: 557 ± 56 fmol/mg prot
[3]; [6]
  Kd: 14 ± 4.69 nM
  A2AR Bmax: 1178 ± 43 fmol/mg prot
[4]; 24 h
  PLCβ1 gene expression decrease over control value: 28%
[4]; 48 h
  PLCβ1 gene expression decrease over control value: 33%
